This note sets out measurements from PMC7226205 (Biomolecules, 2020).

Assay [1] has as its target T1, RUVBL2 (Homo sapiens, UniProt Q9Y230).
T1 construct: recombinant from E. coli BL21(DE3) pRIL
Nature of the assay: ATP/NADH coupled ATPase assay. Type of assay: biochemical.

Assay [2] addresses T2, ScRvb2 (Saccharomyces cerevisiae, UniProt Q12464).
T2 construct: gene RVB2
Nature of the assay: ATP/NADH coupled ATPase assay. Conditions: 10 µM protomer, pH 7.5, 37 °C.

T1 sequence (Q9Y230 whole entry): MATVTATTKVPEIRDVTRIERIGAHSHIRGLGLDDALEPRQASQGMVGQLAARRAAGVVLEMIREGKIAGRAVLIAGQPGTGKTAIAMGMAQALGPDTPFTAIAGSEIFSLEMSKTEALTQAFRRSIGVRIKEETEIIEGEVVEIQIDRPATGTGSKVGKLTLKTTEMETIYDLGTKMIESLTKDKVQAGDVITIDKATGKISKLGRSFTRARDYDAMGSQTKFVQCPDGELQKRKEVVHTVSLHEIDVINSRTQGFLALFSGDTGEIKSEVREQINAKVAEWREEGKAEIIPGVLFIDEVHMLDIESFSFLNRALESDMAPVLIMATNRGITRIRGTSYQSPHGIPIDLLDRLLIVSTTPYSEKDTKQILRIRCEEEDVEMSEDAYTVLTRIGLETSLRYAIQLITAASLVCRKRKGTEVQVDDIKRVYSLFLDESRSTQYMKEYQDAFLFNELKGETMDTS
T2 sequence (Q12464 whole entry): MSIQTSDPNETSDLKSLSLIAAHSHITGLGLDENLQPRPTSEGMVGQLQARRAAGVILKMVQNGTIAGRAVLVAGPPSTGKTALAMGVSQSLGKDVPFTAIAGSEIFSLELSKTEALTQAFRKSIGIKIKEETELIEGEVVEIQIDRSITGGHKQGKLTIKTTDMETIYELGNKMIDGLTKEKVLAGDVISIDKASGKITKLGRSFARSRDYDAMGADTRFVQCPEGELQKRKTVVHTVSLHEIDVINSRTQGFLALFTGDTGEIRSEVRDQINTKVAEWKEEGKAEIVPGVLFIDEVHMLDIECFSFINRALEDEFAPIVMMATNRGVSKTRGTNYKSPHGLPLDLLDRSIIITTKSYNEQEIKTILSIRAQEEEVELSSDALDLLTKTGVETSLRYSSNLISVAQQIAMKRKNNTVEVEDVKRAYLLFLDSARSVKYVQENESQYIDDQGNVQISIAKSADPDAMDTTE

The term inhibition denotes the relative decrease from the control value, in per cent. A low value points to a response near the control. In assay [1], `CNC(=O)c1cc(Oc2ccc(NC(=O)Nc3ccc(Cl)c(C(F)(F)F)c3)c(F)c2)ccn1` [regorafenib] displayed an inhibition at 15 µM of approximately 40%. For the compound `CNC(=O)c1cc(Oc2ccc(NC(=O)Nc3ccc(Cl)c(C(F)(F)F)c3)cc2)ccn1` [sorafenib], the “% inhibition at 30 μM” value in assay [2] is “sorafenib can inhibit RUVBL2 from Saccharomyces cerevisiae (named ScRvb2) although less efficiently”.
